Blank lines part the entries; values can stand above or below the compound they belong to.
Columns and labels:
[1] = biological target: Glyceraldehyde-3-phosphate dehydrogenase (Oryctolagus cuniculus) (UniProt P46406); assay: Inhibition of rabbit muscle GAPDH at 0.5 mM incubated for 24 hrs relative to control
[2] = biological target: T1, Glyceraldehyde-3-phosphate dehydrogenase (Homo sapiens, UniProt P04406); assay: Irreversible inhibition of GAPDH (unknown origin) assessed as ratio of Kinact/Ki
Target sequence in this assay (P04406 2-335 limits assumed): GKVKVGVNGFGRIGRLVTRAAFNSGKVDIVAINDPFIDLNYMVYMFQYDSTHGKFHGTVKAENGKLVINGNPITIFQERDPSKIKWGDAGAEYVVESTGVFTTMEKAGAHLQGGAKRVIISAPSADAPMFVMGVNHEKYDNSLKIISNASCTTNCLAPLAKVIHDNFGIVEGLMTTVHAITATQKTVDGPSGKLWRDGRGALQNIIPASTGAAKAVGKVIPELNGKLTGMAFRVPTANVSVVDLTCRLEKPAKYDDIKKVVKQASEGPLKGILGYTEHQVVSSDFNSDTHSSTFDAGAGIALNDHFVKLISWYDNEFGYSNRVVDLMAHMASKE

[3] = biological target: T1, Glyceraldehyde-3-phosphate dehydrogenase; assay: Inhibition of GAPDH (unknown origin) measured after 1 hr
Target sequence in this assay (P04406 whole entry): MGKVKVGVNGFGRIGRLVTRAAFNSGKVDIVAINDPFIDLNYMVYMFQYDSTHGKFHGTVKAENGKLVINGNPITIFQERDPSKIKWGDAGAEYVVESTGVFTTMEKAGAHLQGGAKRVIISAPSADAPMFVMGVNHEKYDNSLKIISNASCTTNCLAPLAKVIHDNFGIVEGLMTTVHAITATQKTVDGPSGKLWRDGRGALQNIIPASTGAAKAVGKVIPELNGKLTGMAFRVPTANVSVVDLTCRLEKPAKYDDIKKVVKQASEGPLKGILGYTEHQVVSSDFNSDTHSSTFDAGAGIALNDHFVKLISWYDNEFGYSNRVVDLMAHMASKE

[4] = test system: Saccharomyces cerevisiae; assay: Irreversible inhibition of yeast GAPDH holoenzyme
[5] = biological target: T1, Glyceraldehyde-3-phosphate dehydrogenase; assay: Irreversible inhibition of GAPDH (unknown origin) assessed as ratio of Kinact/Ki at slow phase
Target sequence in this assay (P04406 2-335 limits assumed): as the sequence (P04406 2-335 limits assumed) above

[6] = biological target: T1, Glyceraldehyde-3-phosphate dehydrogenase; assay: Irreversible inhibition of GAPDH (unknown origin) assessed as ratio of Kinact/Ki at fast phase
Target sequence in this assay (P04406 2-335 limits assumed): as above

[7] = biological target: T1, Glyceraldehyde-3-phosphate dehydrogenase; assay: Inhibition of human GAPDH
Target sequence in this assay (P04406 2-335 limits assumed): as above

Sequence of Glyceraldehyde-3-phosphate dehydrogenase (Oryctolagus cuniculus) (P46406 whole entry, looked up): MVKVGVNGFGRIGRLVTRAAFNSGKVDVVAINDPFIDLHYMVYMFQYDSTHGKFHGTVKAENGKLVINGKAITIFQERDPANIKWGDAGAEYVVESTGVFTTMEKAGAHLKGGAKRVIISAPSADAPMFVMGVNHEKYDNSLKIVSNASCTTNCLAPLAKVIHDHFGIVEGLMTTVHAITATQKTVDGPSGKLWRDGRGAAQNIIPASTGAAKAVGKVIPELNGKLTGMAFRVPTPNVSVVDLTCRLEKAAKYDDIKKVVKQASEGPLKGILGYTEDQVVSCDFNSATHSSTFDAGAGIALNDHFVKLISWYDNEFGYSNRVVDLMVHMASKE

SMILES: O=C(O)/C=C/C(=O)O
inhibition [1]: 20%

SMILES: C=CC#N
Ratio [2]: 9.2 M⁻¹ s⁻¹

SMILES: C=CC(C)=O
Ratio [2]: 128 M⁻¹ s⁻¹

SMILES: O=C(CCl)P(=O)(O)O
K [4]: 2.8 10^4/M/s

SMILES: O=C(CBr)P(=O)(O)O
K [4]: 5.4 10^4/M/s
K [7]: 3.5 10^4/M/s

The remaining lines, values ahead:

IC50 [3]: 39.1 µM
SMILES: CCC(O)/C=C/C=O (stereo not given)

IC50 [3]: 50 µM
SMILES: CCCCCC(O)/C=C/C=O (stereo not given) [4-HYDROXYNON-2-ENAL]

Ratio [5]: 10.9 M⁻¹ s⁻¹
Ratio [6]: 18.3 M⁻¹ s⁻¹
SMILES: COC(=O)/C=C/C(=O)OC
